Results reported in patent US20240239801A1, “PYRIMIDO[5,4,D]PYRIMIDINE COMPOUNDS, COMPOSITIONS COMPRISING THEM AND USES THEREOF” (Université de Montréal, priority 2021, published 2024).
Read-outs that look alike come from different tables or passages of the source.

Columns and labels:
Test in all cases: Phospho-ERK inhibition, AlphaLISA SureFire Ultra p-ERK 1/2
Format in all cases: cell-based, human
[1] = tested on: NCIH2087 pERK; settings: Table D-2
Outline: (§1)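 IC50 derived by four-parameter fitting of % inhibition, with DMSO as 0% and 1 μM trametinib subtracted as background. Signal is AlphaLISA p-ERK1/2 (Thr202/Tyr204) in lysates of overnight-seeded cells (RPMI-1640, 5% FBS) treated 1 h with ten concentrations from 30 or 10 μM to 0.33 nM, 0.5% DMSO.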

[2] = tested on: Mewo pERK; settings: Table D-2; for Mewo pERK, value in parentheses, % inhibition: % Ymin of pERK IC50 curve
Outline: as §1

[3] = tested on: IPC298 pERK; settings: Table D-1; for IPC298 pERK, value in parentheses, % inhibition: % Ymin of pERK IC50 curve
Outline: as §1

[4] = tested on: NCI-H358 pERK; settings: Table D-2; for NCI-H358 pERK, value in parentheses, % inhibition: % Ymin of pERK IC50 curve
Outline: as §1

[5] = tested on: Calu6 pERK; settings: Table D-2; for Calu6 pERK, value in parentheses, % inhibition: % Ymin of pERK IC50 curve
Outline: as §1

[6] = tested on: SW620 pERK; settings: Table D-2; for pERK IC50 curve bottom (Ymin), %: % Ymin of pERK IC50 curve
Outline: as §1

[7] = tested on: NCIH1755 pERK; settings: Table D-2; for Ymin of pERK inhibition curve (%): % Ymin of pERK IC50 curve
Outline: as §1

[8] = tested on: HepG2 pERK; settings: Table D-1; for HepG2 pERK, value in parentheses, % inhibition: % Ymin of pERK IC50 curve
Outline: as §1

[9] = tested on: Lovo pERK; settings: Table D-2; for pERK curve Ymin (%): % Ymin of pERK IC50 curve
Outline: as §1

[10] = tested on: HCT116 pERK; settings: for HCT116 pERK, value in parentheses, % inhibition: % Ymin of pERK IC50 curve; for HCT116 (Ymin %): lowest value of the pERK IC50 curve
Outline: as §1

[11] = tested on: SK-MEL30 pERK; settings: Table D-1; for SK-MEL30 pERK, value in parentheses, % inhibition: % Ymin of pERK IC50 curve
Outline: as §1

[12] = tested on: SW480 pERK; settings: for SW480 pERK, value in parentheses, % inhibition: % Ymin of pERK IC50 curve; for SW480 (Ymin %): lowest value of the pERK IC50 curve
Outline: as §1

[13] = tested on: NCI-H2122 pERK; settings: Table D-2; for NCI-H2122 pERK, value in parentheses, % inhibition: % Ymin of pERK IC50 curve
Outline: as §1

[14] = Homo sapiens, HCT-116, Table D-1
[15] = Homo sapiens, SW480, Table D-2, read-out: SW480 pERK IC50
[16] = Table 3, 1 h treatment, read-out: SW480 PERK IC50
[17] = Table D-2, read-out: SW480 pERK IC50

Row | Compound | Mewo pERK, value in parentheses, % inhibition [2] | IPC298 pERK, value in parentheses, % inhibition [3] | NCI-H358 pERK, value in parentheses, % inhibition [4] | Calu6 pERK, value in parentheses, % inhibition [5] | Ymin of pERK inhibition curve (%) [7] | HepG2 pERK, value in parentheses, % inhibition [8] | pERK curve Ymin (%) [9] | HCT116 pERK, value in parentheses, % inhibition ([10]; Table D-1) | SK-MEL30 pERK, value in parentheses, % inhibition [11] | SW480 pERK, value in parentheses, % inhibition ([12]; Table D-2) | NCI-H2122 pERK, value in parentheses, % inhibition [13] | IC50 ([10]; Table 3, 1 h treatment) | HCT116 (Ymin %) ([10]; Table 3) | IC50 [12, 16] | SW480 (Ymin %) ([12]; Table 3) | IC50 [1] | Ymin of pERK IC50 curve (%) [1] | IC50 [2] | IC50 [3] | pERK IC50 curve bottom (Ymin), % [6] | other results
1 | Cc1ccc2c(Nc3cccc(Cl)c3F)nccc2c1NC(=O)c1csc2c(N)ncnc12 [Belvarafenib, reference compound] | (−116) % | (−63) % | (−122) % | (−39) % | (−79) % | (−36) % | (−12) % | (−46) % | (−45) % | (−100) % | (−9) % | – | – | – | – | – | – | – | – | – | IC50 ([1]; Homo sapiens, NCI-H2087): < 30 nM; IC50 ([2]; Homo sapiens, MeWo): 30 to 300 nM; IC50 ([3]; Homo sapiens, IPC-298): 30 to 300 nM; IC50 ([4]; Homo sapiens, NCI-H358): 30 to 300 nM; IC50 ([5]; Homo sapiens, Calu-6): 30 to 300 nM; IC50 ([6]; Homo sapiens, SW-620): 30 to 300 nM; IC50 ([7]; Homo sapiens, NCI-H1755): 30 to 300 nM; IC50 ([8]; Homo sapiens, HepG2): 30 to 300 nM; IC50 ([9]; Homo sapiens, LoVo): < 30 nM; IC50 [10, 14]: 30 to 300 nM; IC50 ([11]; Homo sapiens, SK-MEL-30): < 30 nM; IC50 [12, 15]: 30 to 300 nM; IC50 ([13]; Homo sapiens, NCI-H2122): 30 to 300 nM
2 | Nc1cccc2c1ncn2-c1ncc2ncnc(Nc3c(F)ccc(NS(=O)(=O)c4cccc(Cl)c4Cl)c3F)c2n1 [Example 80] | – | – | – | – | – | – | – | – | – | – | – | < 500 nM | −7% | < 500 nM | −2% | – | – | – | – | – | –
3 | Cc1c(F)cccc1S(=O)(=O)Nc1ccc(F)c(Nc2ncnc3cnc(-n4cc(C(=O)N(C)Cc5ccncc5)c5ccccc54)nc23)c1F [Example 98] | (9) % | (13) % | (20) % | (5) % | (9) % | (27) % | (27) % | (−6.0) % | (10) % | (−1) % | (26) % | – | (−6.0) % | < 500 nM | −1% | < 30 nM | (6) % | 30 to 300 nM | 30 to 300 nM | (36) % | IC50 [4]: 30 to 300 nM; IC50 [5]: 30 to 300 nM; IC50 [6]: 30 to 300 nM; IC50 [7]: < 30 nM; IC50 [8]: < 30 nM; IC50 [9]: 30 to 300 nM; IC50 ([10]; Table D-1): 30 to 300 nM; IC50 [11]: < 30 nM; IC50 [12, 17]: 30 to 300 nM; IC50 [13]: 30 to 300 nM
4 | COc1ccc(S(=O)(=O)Nc2ccc(F)c(Nc3ncnc4cnc(-n5cnc6c(N)cccc65)nc34)c2F)c(C)c1Cl [Example 112] | (12) % | (1) % | (−8) % | (1) % | (12) % | (−10) % | (−1) % | (−0.8) % | (6) % | (−7) % | (−15) % | 500 to 1000 nM | −0.8% | < 500 nM | −7% | < 30 nM | (−7) % | < 30 nM | 30 to 300 nM | (11) % | IC50 [4]: 30 to 300 nM; IC50 [5]: 30 to 300 nM; IC50 [6]: 30 to 300 nM; IC50 [7]: < 30 nM; IC50 [8]: 30 to 300 nM; IC50 [9]: 30 to 300 nM; IC50 ([10]; Table D-1): > 300 nM; IC50 [11]: < 30 nM; IC50 [12, 17]: 30 to 300 nM; IC50 [13]: 30 to 300 nM
5 | Cc1c(F)cccc1S(=O)(=O)Nc1ccc(F)c(Nc2ncnc3cnc(-n4cnc5c(-c6cccnc6)cccc54)nc23)c1F [Example 114] | (−12) % | (1) % | (−4) % | (8) % | (−5) % | (14) % | (4) % | (−4.9) % | (−9) % | (1) % | (0) % | – | – | – | 2% | – | (2) % | – | – | (−13) % | IC50 ([1]; Homo sapiens, NCI-H2087): 30 to 300 nM; IC50 ([2]; Homo sapiens, MeWo): 30 to 300 nM; IC50 ([3]; Homo sapiens, IPC-298): 30 to 300 nM; IC50 ([4]; Homo sapiens, NCI-H358): > 300 nM; IC50 ([5]; Homo sapiens, Calu-6): 30 to 300 nM; IC50 ([6]; Homo sapiens, SW-620): > 300 nM; IC50 ([7]; Homo sapiens, NCI-H1755): 30 to 300 nM; IC50 ([8]; Homo sapiens, HepG2): 30 to 300 nM; IC50 ([9]; Homo sapiens, LoVo): < 30 nM; IC50 ([10]; Homo sapiens, HCT-116, Table 3, 1 h treatment): < 500 nM; IC50 [10, 14]: > 300 nM; IC50 ([11]; Homo sapiens, SK-MEL-30): 30 to 300 nM; IC50 ([12]; Homo sapiens, SW480, Table 3, 1 h treatment, read-out: SW480 PERK IC50): < 500 nM; IC50 [12, 15]: 30 to 300 nM; IC50 ([13]; Homo sapiens, NCI-H2122): 30 to 300 nM
6 | O=S(=O)(Nc1ccc(F)c(Nc2ncnc3cnc(-n4cnc5c(N6CCC7(CCCO7)CC6)cccc54)nc23)c1F)c1cccc(Cl)c1Cl [Example 129] | (−5) % | (17) % | (−3) % | (−1) % | (−2) % | (−2) % | (−2) % | (−8) % | (16) % | (3) % | (−14) % | < 500 nM | −8% | < 500 nM | 3% | < 30 nM | (3) % | 30 to 300 nM | 30 to 300 nM | (−7) % | IC50 [4]: 30 to 300 nM; IC50 [5]: 30 to 300 nM; IC50 [6]: > 300 nM; IC50 [7]: < 30 nM; IC50 [8]: 30 to 300 nM; IC50 [9]: 30 to 300 nM; IC50 ([10]; Table D-1): 30 to 300 nM; IC50 [11]: < 30 nM; IC50 [12, 17]: 30 to 300 nM; IC50 [13]: > 300 nM
